Values joined by “and” are separate entries in the source; they are usually repeats but may differ in a detail not shown here. Identical values can stand only once.
System: not listed separately
Experiment: microbe, parasite or virus in culture
Conditions: Mycobacterium tuberculosis, 72 h, read-out: pIC50 (converted)
In the case of `COc1c(Cl)cc(Cl)cc1CN1CCC(C(N)=O)C1` (stereo not given), the IC50 is reported as over 50.1 µM. Compound `CC(C)(C)CN1CCN2C(=O)N(C3CCCCC3)C[C@H]2C1` has an IC50 of over 50.1 µM.

Molecular target: ClpP1P2 (Mycobacterium tuberculosis (strain ATCC 25618 / H37Rv), UniProt P9WPC3+P9WPC5)
Sequence (P9WPC5 whole entry): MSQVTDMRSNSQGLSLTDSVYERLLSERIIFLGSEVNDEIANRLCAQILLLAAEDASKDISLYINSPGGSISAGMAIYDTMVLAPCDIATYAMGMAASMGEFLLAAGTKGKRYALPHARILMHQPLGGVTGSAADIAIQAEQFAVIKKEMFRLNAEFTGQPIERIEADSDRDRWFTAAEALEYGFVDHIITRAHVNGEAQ
Sequence (P9WPC3 whole entry): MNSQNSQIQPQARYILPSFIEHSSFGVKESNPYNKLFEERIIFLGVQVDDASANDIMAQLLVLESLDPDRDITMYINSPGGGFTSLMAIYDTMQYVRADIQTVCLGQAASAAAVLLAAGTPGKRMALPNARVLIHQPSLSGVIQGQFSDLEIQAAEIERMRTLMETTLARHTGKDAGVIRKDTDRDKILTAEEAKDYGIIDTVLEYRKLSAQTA
Experiment: in vitro assay to detect presence of AMC directly proportional to the activity of ClpP1P2. GHDDI collaboration.
Assay type: functional
Conditions: not given
`Cc1ccc(CN2C[C@@H]3CCN(Cc4ccncc4)C(=O)[C@H]3C2)s1` gave an IC50 of 34.3 µM. In the case of `Cc1ccc(-c2cc(-c3nc(CN4CCN(C)CC4)no3)[nH]n2)s1`, the IC50 is reported as over 100 µM. `Cc1nccn1-c1cccc(C2CCCN2)n1` (stereo not given) showed an IC50 of over 100 µM. Compound `CC(C)Cc1nc(CO)n(-c2ccc3c(c2)OCCO3)n1` has an IC50 of over 100 µM.

Molecular target: T1, Coenzyme A biosynthesis bifunctional protein CoaBC (Mycobacterium tuberculosis (strain ATCC 25618 / H37Rv), UniProt P9WNZ1)
T1 sequence (P9WNZ1 whole entry): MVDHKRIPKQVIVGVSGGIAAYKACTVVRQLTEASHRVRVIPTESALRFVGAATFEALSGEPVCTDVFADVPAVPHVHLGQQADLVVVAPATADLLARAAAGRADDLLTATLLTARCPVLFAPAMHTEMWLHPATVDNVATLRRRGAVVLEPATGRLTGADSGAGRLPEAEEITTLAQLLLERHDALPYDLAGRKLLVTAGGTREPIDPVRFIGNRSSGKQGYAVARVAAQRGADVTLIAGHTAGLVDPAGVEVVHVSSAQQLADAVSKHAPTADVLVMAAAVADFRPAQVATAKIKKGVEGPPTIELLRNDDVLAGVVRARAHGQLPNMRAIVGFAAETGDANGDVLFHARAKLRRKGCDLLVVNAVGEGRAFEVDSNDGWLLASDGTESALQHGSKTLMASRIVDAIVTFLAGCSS
Experiment: Biomol Green assay for MtCoaBC inhibitor, OD650 read
Assay type: functional
Conditions: not given
With `COc1c(Cl)cc(Cl)cc1CN1CCC(C(N)=O)C1` (stereo not given) the IC50 was over 30.2 µM. Work on `Cc1c[nH]nc1C1CCN(C(=O)C2CCOCC2)C1` (stereo not given) yielded an IC50 of over 30.2 µM. With `Cn1cc(CNC2CCCOc3c2ccc2ccccc32)cn1` (stereo not given) the IC50 was over 30.2 µM. `Cc1ccc(CN2C[C@@H]3CCN(Cc4ccncc4)C(=O)[C@H]3C2)s1` gave an IC50 of over 30.2 µM. `CCN(CC)CCNS(=O)(=O)c1cccc(CSC)c1` showed an IC50 of over 30.2 µM. Work on `Cc1nn(C)c(C)c1CN(C)C(=O)c1cc(NC(=O)C2CC2)n(C)n1` yielded an IC50 of over 30.2 µM. For `Cc1cc(CCC2CN(CC3(O)CCCCC3)CCO2)ncn1` (stereo not given), the IC50 was over 30.2 µM. `COc1ccc(C(O)CN2CC(n3nc(C)cc3C)C2)cc1` (stereo not given) gave an IC50 of over 30.2 µM. In the case of `Cc1ccc(-c2cc(-c3nc(CN4CCN(C)CC4)no3)[nH]n2)s1`, the IC50 is reported as over 30.2 µM. Compound `CC(C)(C)CN1CCN2C(=O)N(C3CCCCC3)C[C@H]2C1` has an IC50 of over 30.2 µM. For `CCn1c(NCc2ccccn2)nc2c(C)nn(C)c2c1=O`, the IC50 was over 30.2 µM. `c1ccc(Cn2cc(CNCC3CNc4ccnn4C3)cn2)cc1` (stereo not given) gave an IC50 of over 30.2 µM. `COCCN(C)CC(=O)N1CCCC2(CCC(=O)N(CC3CC3)C2)C1` (stereo not given) showed an IC50 of over 30.2 µM. `CSc1nc(C)cc(N2CCC(c3ncc[nH]3)CC2)n1` gave an IC50 of over 30.2 µM. `CCc1nccn1CC1CCCN1S(=O)(=O)Cc1ccccc1` (stereo not given) showed an IC50 of over 30.2 µM. In the case of `CC(C)C(C)(C#N)NC(=O)Cn1cc(C(N)=O)c(-c2ccccc2)n1` (stereo not given), the IC50 is reported as over 30.2 µM. In the case of `CCC(=O)N1CCCCC1c1nc(O)c2c(n1)CN(S(=O)(=O)CC)CC2` (stereo not given), the IC50 is reported as over 30.2 µM. With `CC(C)c1noc(C[S+]([O-])CC(=O)Nc2ccc(F)c(F)c2)n1` (stereo not given) the IC50 was over 30.2 µM. `CCC1CCCCN1C(=O)Cn1nc(-c2ccc(C)o2)cc(N)c1=O` (stereo not given) gave an IC50 of over 50.1 µM. In the case of `CN(Cc1nccs1)C1CCN(c2cccc(-c3cscn3)c2)CC1`, the IC50 is reported as over 30.2 µM. Work on `Cc1cnn(CC2CCCN2C(=O)c2cccc(S(C)(=O)=O)c2)c1` (stereo not given) yielded an IC50 of over 30.2 µM. For `O=C1CC(c2ccc(C(=O)O)cc2)c2c(sc3c2CCCC3)N1` (stereo not given), the IC50 was over 50.1 µM. `CN1CCOC(CNCC(=O)NCCC2=CCCCC2)C1` (stereo not given) gave an IC50 of over 30.2 µM. With `Cc1nccn1-c1cccc(C2CCCN2)n1` (stereo not given) the IC50 was over 30.2 µM. `CS(=O)(=O)c1ccc(-c2c[nH]c([C@@H]3COCCN3)n2)cc1` gave an IC50 of over 30.2 µM. For `CCCN(Cc1ccccc1C)C(CC)CO` (stereo not given), the IC50 was over 30.2 µM. In the case of `O=S(=O)(NC1CCCCC12OCCO2)c1cc(F)cc(F)c1` (stereo not given), the IC50 is reported as over 30.2 µM. `CCn1ncnc1C(C)NC(=O)CC1CCN(C(C)C)CC1` (stereo not given) showed an IC50 of over 30.2 µM. In the case of `Cc1cccc(CN(C(=O)CCn2cncn2)C(C)C)c1`, the IC50 is reported as over 30.2 µM. Compound `CN(C)CCO[C@@H]1CC[C@H]2[C@H]1OCCN2C(=O)c1ccncc1` has an IC50 of over 30.2 µM. `COc1ccccc1CNC(=O)N1CCN(Cc2cc(C)on2)CC1` showed an IC50 of over 30.2 µM. For `CN(CC(N)=O)C(=O)c1csc(Br)c1`, the IC50 was over 30.2 µM. Compound `CCN(C)C[C@@H]1CN(C(=O)NC2CCCCC2)C[C@@H]1CO` has an IC50 of over 30.2 µM. Work on `Cc1cnc(N2CCn3cc(CNC(=O)CC4CC4)nc3C2)nc1` yielded an IC50 of over 30.2 µM. In the case of `CC(C)CN1C[C@@H]2OCC(=O)N(c3ccccc3)[C@@H]2C1`, the IC50 is reported as over 30.2 µM. `CCc1nc(C)c(CN2CCCC(c3nn(C)c(=O)n3CC)C2)[nH]1` (stereo not given) gave an IC50 of over 30.2 µM. `CC(NCCCN1CCCC1=O)c1cc(Br)ccc1F` (stereo not given) gave an IC50 of over 30.2 µM. With `Cc1noc(C2CCC3(CCN(C(=O)c4ccncn4)CC3)O2)n1` (stereo not given) the IC50 was over 30.2 µM. `Fc1ccc(Oc2nccnc2C2CCN(C3CCOCC3)CC2)cc1` gave an IC50 of over 30.2 µM. `CS(=O)(=O)NC1CCN(C(=O)NCCc2ccccc2F)CC1` showed an IC50 of over 30.2 µM. With `COc1ccccc1N1CCC(CNCc2ccc(C#N)cc2)C1` (stereo not given) the IC50 was over 30.2 µM. `CCc1ncncc1C(=O)NCCNS(=O)(=O)c1ccccc1` showed an IC50 of over 50.1 µM. Compound `Cc1cncc(C(=O)N2CCO[C@H]3[C@H](OCCN(C)C)CC[C@@H]32)c1` has an IC50 of over 30.2 µM. `Nc1ccncc1-n1cc(CCO)cn1` gave an IC50 of over 30.2 µM. `CCC(c1ccc(F)cc1F)N1CCN(CCO)CC1` (stereo not given) showed an IC50 of over 30.2 µM. `Cn1cccc1CN1CCc2ncnc(-c3cccnc3)c2CC1` gave an IC50 of over 30.2 µM. Work on `Cc1ccc(C(=O)Nc2c(C(=O)N(C)C)nn(C)c2C)cc1C` yielded an IC50 of over 30.2 µM. Work on `Cc1c(CN2CCCC(O)C2)[nH]c2ccc(F)cc12` (stereo not given) yielded an IC50 of over 30.2 µM. Compound `CN(C)c1ncc(CN2CCCC(Nc3ccc4c(c3)OCCO4)C2)s1` (stereo not given) has an IC50 of over 30.2 µM. For `CC(C)Cc1nc(CO)n(-c2ccc3c(c2)OCCO3)n1`, the IC50 was over 30.2 µM.

Molecular target: Tryptophan--tRNA ligase (Mycobacterium tuberculosis (strain ATCC 25618 / H37Rv), UniProt P9WFT3)
Sequence (P9WFT3 whole entry): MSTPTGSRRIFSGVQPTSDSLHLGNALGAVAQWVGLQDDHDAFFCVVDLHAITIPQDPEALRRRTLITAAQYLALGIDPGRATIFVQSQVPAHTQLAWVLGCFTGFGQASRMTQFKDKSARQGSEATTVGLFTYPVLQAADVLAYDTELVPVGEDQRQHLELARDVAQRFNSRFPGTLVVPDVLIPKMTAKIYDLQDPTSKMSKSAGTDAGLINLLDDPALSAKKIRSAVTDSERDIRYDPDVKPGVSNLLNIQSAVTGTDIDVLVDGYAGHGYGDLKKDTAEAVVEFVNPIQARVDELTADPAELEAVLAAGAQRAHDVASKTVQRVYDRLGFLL
Experiment: Biochemical assay for Mt-TrpRS
Assay type: functional
Conditions: not given
Compound `Cc1c[nH]nc1C1CCN(C(=O)C2CCOCC2)C1` (stereo not given) has an IC50 of over 195 µM. `Cc1cc(CCC2CN(CC3(O)CCCCC3)CCO2)ncn1` (stereo not given) showed an IC50 of over 195 µM. For `c1ccc(Cn2cc(CNCC3CNc4ccnn4C3)cn2)cc1` (stereo not given), the IC50 was over 195 µM.

System: Plasmodium falciparum
Experiment: Calibr Malaria Delayed Death Assay SOP
Assay type: functional, organism-based
Conditions: not given
Work on `Cn1cc(CNC2CCCOc3c2ccc2ccccc32)cn1` (stereo not given) yielded a pIC50 of 6.02. `CCN(CC)CCNS(=O)(=O)c1cccc(CSC)c1` showed a pIC50 of 6.161. Compound `COc1ccc(C(O)CN2CC(n3nc(C)cc3C)C2)cc1` (stereo not given) has a pIC50 of 5.759.

Same assay, conditions: Plasmodium falciparum
`Cn1cc(CNC2CCCOc3c2ccc2ccccc32)cn1` (stereo not given) showed an IC50 of 0.871 µM. `CCN(CC)CCNS(=O)(=O)c1cccc(CSC)c1` gave an IC50 of 0.551 µM. In the case of `COc1ccc(C(O)CN2CC(n3nc(C)cc3C)C2)cc1` (stereo not given), the IC50 is reported as 1.76 µM.

System: not listed separately
Experiment: microbe, parasite or virus in culture
Conditions: Mycobacterium tuberculosis, 96 h, read-out: pIC50 (converted)
With `COc1c(Cl)cc(Cl)cc1CN1CCC(C(N)=O)C1` (stereo not given) the IC50 was over 50.1 µM. `CC(C)(C)CN1CCN2C(=O)N(C3CCCCC3)C[C@H]2C1` showed an IC50 of over 50.1 µM.

System: not listed separately
Experiment: In vitro enzyme assay to detect hydrolysis of chlorophenol red-beta-D-[…] directly proportional to the number of Toxoplasma stably expressing beta-galactosidase
Assay type: functional, organism-based, Toxoplasma gondii
Conditions: not given
For `CCn1c(NCc2ccccn2)nc2c(C)nn(C)c2c1=O`, the pIC50 was < 4.3 and 4.672.

Same assay, conditions: Toxoplasma gondii
Work on `Cc1nn(C)c(C)c1CN(C)C(=O)c1cc(NC(=O)C2CC2)n(C)n1` yielded an IC50 of over 50.1 µM. `Cc1ccc(C(=O)Nc2c(C(=O)N(C)C)nn(C)c2C)cc1C` showed an IC50 of over 50.1 µM.

Reference: ChEMBL document CHEMBL3988442, “University of Dundee, Small-Polar-MMV Screening Library” (2021)
